From paper PMC6273209, “Evaluation of the Enantiomer Specific Biokinetics and Radiation Doses of [^18F]Fluspidine—A New Tracer in Clinical Translation for Imaging of σ1 Receptors” (Molecules, 2016)
Where two headings read alike, the source gives them in different places.

Tests used:
[1] = imaging, cited from earlier work
[2] = cited from earlier work
[3] = cited from earlier work; remark: listed apart in the source
σ1 receptors = target: σ1 receptors; parameters: method as in PMID 24130175; details: read-out: Ki (affinity towards σ1 receptors); cited from earlier work
[4] = Acute toxicity study, single intravenous injection; format: in vivo; details: Wistar rats
From the text: Supplementary Materials: Evaluation of the Enantiomer Specific Biokinetics and Radiation Doses of [18F]Fluspidine—A New Tracer in Clinical
Translation for Imaging of σ1 Receptors […]
Supplemental Methods and Results
Animal Toxicity Study of (S)-(−)-Fluspidine
The purpose of this study was to assess the acute toxicity of (S)-(−)-fluspidine when administered by a single intravenous injection to rats followed by an observation period of 2 or 15 day (in accordance with EU cGLP). Briefly, the study was performed with 4 test groups, including 1 control (saline and dimethylsulfoxide) and 3 dose groups (6.2, 62 and 620 µg/kg, (S)- (−)ﬂuspidine), with Wistar rats (60 m, 60 f, 12 weeks) divided into two experiments: day 2 (40 males and 40 females) and day 15 (20 males and 20 females). The animals were weighted and allocated to the test groups based on their actual body weights. The animals were sacrificed at two time periods (day 2 and day 15 after test item administration) and then examined macroscopically and histopathologically. In addition the following parameters were evaluated: mortality, clinical observation (spasms, tremor and hyperactivity), body weights, food consumption, haematology (white blood cells, red blood cells, hemoglobin, hematocrit, mean corpuscular volume, mean corpuscular hemoglobin, platelets, lympohcytes, neutrophils, eosinophils, basophils, monocytes), clinical chemistry (alkaline phosphatase, aspartate aminotransferase, alanine aminotransferase, glucose, cholesterol, triacylglycerols, creatinine, urea, bilirubin, albumin, calcium, phosphorus, sodium, potassium chloride), pathology and histopathology. […]
in either gender were detected. The food consumption corresponded with body weight development. All haematology parameter´s values on day 2 and day 15 were within physiological range for this species. Individual divergences of some values of the haematology parameters were slight and not connected with treatment.
There were no findings in clinical chemistry parameters which could be definitively considered as adverse. The average values of all test groups were within the historical control ranges. Occasional changes had no dose relationship, they were considered to be a result of intraindividual and interindividual variability for this species. […]
histopathological parameters on day 2 and day 15. The no observed effect level (NOEL) of (S)- (−)-fluspidine after single intravenous administration in this study for both day 2 and day 15 was determined to be 620 µg/kg.

[5] = parameters: method as in PMID 12573321, PMID 12589478; details: cited from earlier work

In the case of `[18F]c1ccc(C2CC3CCCC2N3)cn1` (single isomer, unassigned; (+)) [(+)-[^18F]flubatine], the “ED Preclinical” value ([1]; piglets) is listed as 14.3 μSv/MBq, the “ED Clinical” value [2] is listed as 23.0 μSv/MBq and the “ED Preclinical” value ([3]; mouse, imaging) is listed as 12.1 μSv/MBq.

For `[18F]c1ncccc1OC[C@@H]1CCN1` [2-[^18F]F-A85380], the “ED Clinical” value [2] is listed as 19.4 μSv/MBq.

For `FCC[C@H]1OC2(CCN(Cc3ccccc3)CC2)c2ccccc21` [(R)-(+)-[^18F]fluspidine], the Ki (σ1 receptors) is listed as 0.57 nM.

In the case of `FCC[C@@H]1OC2(CCN(Cc3ccccc3)CC2)c2ccccc21` [(S)-(−)-fluspidine], the “body weights, control vs treated groups” value ([4]; single i.v. 6.2, 62 and 620 µg/kg, either gender) is reported as “No statistically significant differences in body weights”, the “adverse findings in clinical chemistry parameters” value ([4]; single i.v.) is reported as “no findings” and the “effect on haematology parameters” value ([4]; single i.v., day 2 and day 15) is reported as “No test item effect”. The “toxicological changes in pathological and histopathological parameters” value ([4]; single intravenous administration, day 2 and day 15) was “did not cause toxicological changes” and the “no observed effect level (NOEL)” value ([4]; single intravenous administration, day 2 and day 15, highest tested dose) was 0.62 mg/kg.

In the case of `[18F]c1ccc([C@@H]2C[C@H]3CCC[C@@H]2N3)cn1` [(−)-[^18F]flubatine], the “ED Preclinical” value ([1]; piglet) is given as 14.7 μSv/MBq, the “ED Clinical” value [2] is given as 23.4 μSv/MBq and the “ED Preclinical” value ([3]; mouse) is given as 12.5 μSv/MBq.

For `OC[C@H]1OC(O)[C@H]([18F])[C@@H](O)[C@@H]1O` (stereo partly shown) [[^18F]FDG], the “ED Clinical” value [2] is given as 19.0 μSv/MBq.

For `COc1ccc(OCC[18F])c(CN(C(C)=O)c2cc(F)ccc2Oc2ccccc2)c1` [[^18F]FEDAA1106], the “ED Clinical” value [2] is listed as 36 μSv/MBq, the “ED Preclinical” value ([3]; female mouse) is listed as 26.0 μSv/MBq and the “ED Preclinical” value ([3]; male mouse) is listed as 21.0 μSv/MBq.

In the case of `N[C@@H](Cc1ccc(OCC[18F])cc1)C(=O)O` [[^18F]FET], the “ED Preclinical” value [5] is given as 9.0 μSv/MBq and the “ED Clinical” value [2] is given as 16.5 μSv/MBq.
